Results as given in ChEMBL document CHEMBL3885861, “Open TG-GATES”.

Organism: Rattus norvegicus
Test: Open TG-GATES - Regimen: Single
Format: toxicity, organism-based, Sprague-Dawley
Set-up: regimen Single, gender Male, age 6 weeks
Settings: in vivo, po, 10 mg/kg, route gavage, dose level Low; for APTT / Bas / Eos / Fbg / Hb / Ht / Lym / MCH / MCHC / MCV / Mono / Neu / PT / Plat / RBC / Ret / WBC: tissue Blood; for KIDNEY_L / KIDNEY_R / KIDNEY_TOTAL: tissue Kidney; for LIVER: tissue Liver; for A/G / ALP / ALT / AST / BUN / CRE / Ca / Cl / DBIL / GLC / IP / K / LDH / Na / PL / RALB / TBIL / TC / TG / TP / gamma-GTP: tissue Plasma

CN(C)CCN(Cc1cccs1)c1ccccn1
TERMINAL_BW (3 h): 185 g | APTT (3 h): 20.7 s | Bas (3 h): 0% | Eos (3 h): 0.6% | Fbg (3 h): 285 mg/dL | Hb (3 h): 13.4 g/dL | Ht (3 h): 40.7% | Lym (3 h): 79.6% | MCH (3 h): 21.2 pg | MCHC (3 h): 32.9% | MCV (3 h): 64.6 fL | Mono (3 h): 2% | Neu (3 h): 17.2% | PT (3 h): 16.4 s | Plat (3 h): 111.1 x10_4/uL | RBC (3 h): 630.4 x10_4/ul | Ret (3 h): 7.5% | WBC (3 h): 82 x10_2/uL | KIDNEY_L (3 h): 0.8 g | KIDNEY_R (3 h): 0.8 g | KIDNEY_TOTAL (3 h): 1.6 g | LIVER (3 h): 8.1 g | A/G (3 h): 1.3 | ALP (3 h): 1664.4 IU/L | ALT (3 h): 41.2 IU/L | AST (3 h): 77.8 IU/L | BUN (3 h): 13.6 mg/dL | CRE (3 h): 0.2 mg/dL | Ca (3 h): 10.5 mg/dL | Cl (3 h): 107.6 meq/L | DBIL (3 h): 0.002 mg/dL | GLC (3 h): 171.6 mg/dL | IP (3 h): 8 mg/dL | K (3 h): 4.2 meq/L | LDH (3 h): 205.8 IU/L | Na (3 h): 144 meq/L | PL (3 h): 125.4 mg/dL | RALB (3 h): 3 g/dL | TBIL (3 h): 0.014 mg/dL | TC (3 h): 67.8 mg/dL | TG (3 h): 43.2 mg/dL | TP (3 h): 5.3 g/dL | gamma-GTP (3 h): 1.2 IU/L | TERMINAL_BW (6 h): 188.4 g | APTT (6 h): 20.6 s | Bas (6 h): 0% | Eos (6 h): 0.6% | Fbg (6 h): 294.6 mg/dL | Hb (6 h): 12.7 g/dL | Ht (6 h): 39% | Lym (6 h): 77.8% | MCH (6 h): 21.3 pg | MCHC (6 h): 32.6% | MCV (6 h): 65.3 fL | Mono (6 h): 2.2% | Neu (6 h): 18.6% | PT (6 h): 17.1 s | Plat (6 h): 119.7 x10_4/uL | RBC (6 h): 597.6 x10_4/ul | Ret (6 h): 7.6% | WBC (6 h): 70.2 x10_2/uL | KIDNEY_L (6 h): 0.9 g | KIDNEY_R (6 h): 0.9 g | KIDNEY_TOTAL (6 h): 1.9 g | LIVER (6 h): 8.2 g | A/G (6 h): 1.3 | ALP (6 h): 1485.8 IU/L | ALT (6 h): 37.6 IU/L | AST (6 h): 70.2 IU/L | BUN (6 h): 10.8 mg/dL | CRE (6 h): 0.1 mg/dL | Ca (6 h): 10.3 mg/dL | Cl (6 h): 106.6 meq/L | DBIL (6 h): 0.002 mg/dL | GLC (6 h): 171.6 mg/dL | IP (6 h): 9.6 mg/dL | K (6 h): 4.4 meq/L | LDH (6 h): 202.4 IU/L | Na (6 h): 141.6 meq/L | PL (6 h): 124 mg/dL | RALB (6 h): 2.9 g/dL | TBIL (6 h): 0.016 mg/dL | TC (6 h): 70.6 mg/dL | TG (6 h): 63.6 mg/dL | TP (6 h): 5.3 g/dL | gamma-GTP (6 h): 1 IU/L | TERMINAL_BW (9 h): 182.3 g | APTT (9 h): 20.7 s | Bas (9 h): 0% | Eos (9 h): 0.4% | Fbg (9 h): 314.8 mg/dL | Hb (9 h): 12.9 g/dL | Ht (9 h): 38.8% | Lym (9 h): 77.4% | MCH (9 h): 20.8 pg | MCHC (9 h): 33.3% | MCV (9 h): 62.5 fL | Mono (9 h): 2.2% | Neu (9 h): 19.4% | PT (9 h): 15.9 s | Plat (9 h): 114.9 x10_4/uL | RBC (9 h): 621.8 x10_4/ul | Ret (9 h): 7.4% | WBC (9 h): 62 x10_2/uL | KIDNEY_L (9 h): 0.8 g | KIDNEY_R (9 h): 0.9 g | KIDNEY_TOTAL (9 h): 1.7 g | LIVER (9 h): 7.8 g | A/G (9 h): 1.2 | ALP (9 h): 1429.4 IU/L | ALT (9 h): 30.2 IU/L | AST (9 h): 62.8 IU/L | BUN (9 h): 11.2 mg/dL | CRE (9 h): 0.1 mg/dL | Ca (9 h): 10.4 mg/dL | Cl (9 h): 106.4 meq/L | DBIL (9 h): 0 mg/dL | GLC (9 h): 171 mg/dL | IP (9 h): 9.6 mg/dL | K (9 h): 4.2 meq/L | LDH (9 h): 171 IU/L | Na (9 h): 142.4 meq/L | PL (9 h): 129 mg/dL | RALB (9 h): 3 g/dL | TBIL (9 h): 0.018 mg/dL | TC (9 h): 67.2 mg/dL | TG (9 h): 69.2 mg/dL | TP (9 h): 5.4 g/dL | gamma-GTP (9 h): 1 IU/L | TERMINAL_BW (24 h): 197.6 g | APTT (24 h): 19.8 s | Bas (24 h): 0% | Eos (24 h): 0.5% | Fbg (24 h): 282.8 mg/dL | Hb (24 h): 12.7 g/dL | Ht (24 h): 38.4% | Lym (24 h): 80.5% | MCH (24 h): 21.8 pg | MCHC (24 h): 33.1% | MCV (24 h): 65.8 fL | Mono (24 h): 1.8% | Neu (24 h): 16.8% | PT (24 h): 16.6 s | Plat (24 h): 114.6 x10_4/uL | RBC (24 h): 584 x10_4/ul | Ret (24 h): 7.2% | WBC (24 h): 94 x10_2/uL | KIDNEY_L (24 h): 0.9 g | KIDNEY_R (24 h): 0.9 g | KIDNEY_TOTAL (24 h): 1.7 g | LIVER (24 h): 9.3 g | A/G (24 h): 1.2 | ALP (24 h): 1858.2 IU/L | ALT (24 h): 42.2 IU/L | AST (24 h): 69.6 IU/L | BUN (24 h): 16.4 mg/dL | CRE (24 h): 0.2 mg/dL | Ca (24 h): 10.7 mg/dL | Cl (24 h): 107.4 meq/L | DBIL (24 h): 0.002 mg/dL | GLC (24 h): 180.6 mg/dL | IP (24 h): 7.3 mg/dL | K (24 h): 4.3 meq/L | LDH (24 h): 223.2 IU/L | Na (24 h): 142.8 meq/L | PL (24 h): 145.4 mg/dL | RALB (24 h): 2.9 g/dL | TBIL (24 h): 0.008 mg/dL | TC (24 h): 75.2 mg/dL | TG (24 h): 131.8 mg/dL | TP (24 h): 5.3 g/dL | gamma-GTP (24 h): 1 IU/L
